From patent US8114994B2, “2′ and 3′-substituted cyclobutyl nucleoside analogs for the treatment viral infections and abnormal cellular proliferation” (Emory University, priority 2004, dated 2012)

Tests used:
[1] = biological target: T1, HIV RT (M/I) (Human immunodeficiency virus type 1 group M subtype B, UniProt P04585, M771I); test: Inhibition of HIV-RT from viral lysate, M184I mutant (M/I); format: biochemical; conditions: for % Inhibition / cpm/ml: M/I RT; for IC50: HIV RT (M/I) from viral lysates from infected PBMC, triplicates from one experiment
T1 construct: from tissue; host or cells: HIV viral lysate (M184I mutant strain)

[2] = biological target: T2, HIV RT (M/V) (Human immunodeficiency virus type 1 group M subtype B, UniProt P04585, M771V); test: Inhibition of HIV-RT from viral-lysate (M/V), M184V mutant; format: biochemical; conditions: for % Inhibition / cpm/ml: RT from viral lysate (M/V); for IC50: HIV RT (M/V) from viral lysates from infected PBMC, triplicates from one experiment
T2 construct: from tissue; host or cells: HIV viral lysate (M184V mutant strain)

[3] = biological target: T3, HIV-RT from viral-lysate (WT) (Human immunodeficiency virus type 1 group M subtype B, UniProt P04585); test: Inhibition of HIV-RT from viral-lysate (WT); format: biochemical; conditions: for % Inhibition / cpm/ml: RT from viral lysate (WT); for IC50: HIV RT (WT) from viral lysates from infected PBMC, triplicates from one experiment
T3 construct: from tissue; host or cells: HIV viral lysate

[4] = biological target: T4, Recombinant HIV RT (WT) (Human immunodeficiency virus type 1 group M subtype B, UniProt P04585); test: RT assay, recombinant wild type HIV-RT (cell-free); format: biochemical; conditions: triplicates from one experiment, read-out: Inhibition of RT Activity (IC50)
T4 construct: was evaluated against recombinant wild type HIV-RT
Method: [drawing 29] was evaluated against recombinant wild type HIV-RT, as well as the M184I and M184V mutants, according to the RT assay described in Eriksson B F, Chu C K, Schinazi R F; Antimicrob. Agents Chemother. 1989, 33, 1729-1734. The results are tabulated in Tables 2-5 and depicted in FIGS. 1-3.

[5] = system: HIV; test: Anti-HIV activity in PBM cells; format: cell-based; conditions: Human immunodeficiency virus 1, PBMC
Method: (§1) The cyclobutyl nucleoside analogs (CBN) were evaluated for their anti-HIV activity and cytotoxicity in PBM, CEM and Vero cells, according to known procedures.
(§2) The following cyclobutyl nucleoside compounds were evaluated for their anti-HIV activity and cytotoxicity in PBM cells, according to standard procedures.

[6] = system: Vero cells; test: Toxicity in Vero cells; format: cell-based; conditions: Chlorocebus sabaeus
Method: as §1, §2

[7] = system: PBM cells; test: Toxicity in PBM cells; format: cell-based; conditions: PBMC
Method: as §1, §2

[8] = system: HIV; test: Anti-HIV activity in PBM cells; format: cell-based; conditions: Example 114, refers to Table 6
[9] = system: CEM cells; test: Toxicity in CEM cells; format: cell-based; conditions: Homo sapiens, CCRF-CEM
Method: as §1, §2

[10] = system: HIV; conditions: after 28 days treatment; preliminary human data; cited from earlier work

Q: Which results are given for “5-fluoro-1-[cis-3-(hydroxymethyl)-cyclobutyl]-cytosine triphosphate [DLS183-TP]”?
A: % Inhibition ([1]; 0.1 μM): 0.01%; cpm/ml ([1]; 0.1 μM): 407041.44 cpm/ml; % Inhibition ([1]; 1 μM): 20%; cpm/ml ([1]; 1 μM): 272130.486 cpm/ml; % Inhibition ([1]; 10 μM): 53%; cpm/ml ([1]; 10 μM): 160719.12 cpm/ml; IC50 [1]: 6.06 µM; % Inhibition ([2]; 0.1 μM): 5%; cpm/ml ([2]; 0.1 μM): 297603.432 cpm/ml; % Inhibition ([2]; 1 μM): 22%; cpm/ml ([2]; 1 μM): 245062.692 cpm/ml; % Inhibition ([2]; 10 μM): 51%; cpm/ml ([2]; 10 μM): 152688.27 cpm/ml; IC50 [2]: 6.91 µM; % Inhibition ([3]; 0.1 μM): 0.01%; cpm/ml ([3]; 0.1 μM): 280781.826 cpm/ml; % Inhibition ([3]; 1 μM): 18%; cpm/ml ([3]; 1 μM): 228126.312 cpm/ml; % Inhibition ([3]; 10 μM): 51%; cpm/ml ([3]; 10 μM): 134616.36 cpm/ml; IC50 [3]: 6.85 µM; IC50 [4]: 4.74 µM

Q: For `Nc1ccn([C@@H]2CS[C@H](COP(=O)(O)OP(=O)(O)OP(=O)(O)O)O2)c(=O)n1` [Compound 3TC-TP, reference compound], which “% Inhibition” value ([1]; 0.1 μM) is on record?
A: Its value is 0.03%.

Q: And the cpm/ml ([1]; 0.1 μM)?
A: The cpm/ml was 329435.346 cpm/ml.

Q: And the “% Inhibition” value ([1]; 1 μM)?
A: The value was 0.03%.

Q: And the cpm/ml ([1]; 1 μM)?
A: Its cpm/ml is 329605.62 cpm/ml.

Q: What about the “% Inhibition” value ([1]; 10 μM) of the same compound?
A: The value was 13%.

Q: And the cpm/ml ([1]; 10 μM)?
A: The cpm/ml was 298628.406 cpm/ml.

Q: What about the IC50 [1] of the same compound?
A: Its IC50 is greater than 10 µM.

Q: What about the “% Inhibition” value ([2]; 0.1 μM) of the same compound?
A: The value was 13%.

Q: What about the cpm/ml ([2]; 0.1 μM) of the same compound?
A: Its cpm/ml is 270239.712 cpm/ml.

Q: What about the “% Inhibition” value ([2]; 1 μM) of the same compound?
A: The value was 7%.

Q: What about the cpm/ml ([2]; 1 μM) of the same compound?
A: The cpm/ml was 288267.666 cpm/ml.

Q: What about the “% Inhibition” value ([2]; 10 μM) of the same compound?
A: The value was 0.01%.

Q: And the cpm/ml ([2]; 10 μM)?
A: The cpm/ml was 336946.272 cpm/ml.

Q: And the IC50 [2]?
A: Its IC50 is greater than 10 µM.

Q: And the “% Inhibition” value ([3]; 0.1 μM)?
A: The value was 3.1%.

Q: What about the cpm/ml ([3]; 0.1 μM) of the same compound?
A: The cpm/ml was 268420.2 cpm/ml.

Q: And the “% Inhibition” value ([3]; 1 μM)?
A: Its value is 22%.

Q: What about the cpm/ml ([3]; 1 μM) of the same compound?
A: Its cpm/ml is 215883.012 cpm/ml.

Q: What about the “% Inhibition” value ([3]; 10 μM) of the same compound?
A: Its value is 55%.

Q: And the cpm/ml ([3]; 10 μM)?
A: Its cpm/ml is 124341.312 cpm/ml.

Q: And the IC50 [3]?
A: The IC50 was 6.53 µM.

Q: What about the IC50 [4] of the same compound?
A: Its IC50 is 2.99 µM.

Q: For `O=c1ccn([C@@H]2C[C@H](CO)C2F)c(=O)[nH]1` (stereo partly drawn) [DLS-194], which EC50 [5] is on record?
A: Its EC50 is greater than 100 µM.

Q: Which EC50 [5] does the source give for `Nc1ccn([C@@H]2C[C@H](CO)C2F)c(=O)n1` (stereo partly drawn) [DLS-195] here?
A: Its EC50 is greater than 100 µM.

Q: With `O=c1[nH]c(=O)n([C@@H]2C[C@H](CO)C2F)cc1F` (stereo partly drawn) [DLS-196] as the compound, how does the EC50 [5] read?
A: The EC50 was greater than 100 µM.

Q: For `OC[C@H]1C[C@@H](n2cnc3c(Cl)ncnc32)C1F` (stereo partly drawn) [DLS-197], which EC50 [5] is on record?
A: The EC50 was greater than 100 µM.

Q: Which results are given for `Nc1ncnc2c1ncn2[C@@H]1C[C@H](CO)C1F` (stereo partly drawn) [DLS-206]?
A: EC50 [5]: 50.4 µM; EC90 [5]: > 100 µM; IC50 [6]: > 100 µM; IC50 [7]: > 100 µM; inhibition of HIV-RT (in words) [8]: significant inhibition; IC50 [9]: > 100 µM

Q: With `Nc1ncnc2c1ncn2[C@@H]1C[C@H](CO)C1O` (stereo partly drawn) [DLS-207] as the compound, how does the EC50 [5] read?
A: The EC50 was 33.7 µM.

Q: What about the EC90 [5] of the same compound?
A: The EC90 was 60.1 µM.

Q: And the IC50 [6]?
A: Its IC50 is 97.8 µM.

Q: And the IC50 [7]?
A: The IC50 was 13.8 µM.

Q: What about the “inhibition of HIV-RT (in words)” value [8] of the same compound?
A: Its value is “significant inhibition”.

Q: And the IC50 [9]?
A: Its IC50 is greater than 100 µM.

Q: Which EC50 [5] does the source give for `O=c1[nH]c(=O)n(C[C@@H]2C[C@H](CO)C2O)cc1F` (stereo partly drawn) [DLS-210] here?
A: The EC50 was greater than 100 µM.

Q: For `Nc1ncnc2c1ncn2C[C@H]1C[C@H](CO)C1` [DLS-211], which EC50 [5] is on record?
A: Its EC50 is greater than 100 µM.

Q: Which EC50 [5] does the source give for `Nc1ncnc2c1ncn2CC1CC(CO)C1` (stereo not drawn) [DLS-212] here?
A: The EC50 was greater than 100 µM.

Q: For `Nc1nc(O[C@@H]2C[C@H](CO)C2F)ncc1F` (stereo partly drawn) [DLS-221], which EC50 [5] is on record?
A: Its EC50 is greater than 100 µM.

Q: Which EC50 [5] does the source give for `Nc1nc(=O)n([C@@H]2C[C@H](CO)C2F)cc1F` (stereo partly drawn) [DLS-222] here?
A: Its EC50 is greater than 100 µM.

Q: For `Nc1nc2c(ncn2[C@@H]2C[C@H](CO)C2F)c(=O)[nH]1` (stereo partly drawn) [DLS-223], which EC50 [5] is on record?
A: Its EC50 is 27.7 µM.

Q: What about the EC90 [5] of the same compound?
A: Its EC90 is greater than 100 µM.

Q: And the IC50 [6]?
A: The IC50 was greater than 100 µM.

Q: And the IC50 [7]?
A: The IC50 was greater than 100 µM.

Q: And the “inhibition of HIV-RT (in words)” value [8]?
A: The value was “significant inhibition”.

Q: What about the IC50 [9] of the same compound?
A: Its IC50 is greater than 100 µM.

Q: For `Nc1nc2c(ncn2[C@@H]2CC(CO)C2CO)c(=O)[nH]1` (stereo partly drawn) [lobucavir, (R)-9-[2,3-Bis(hydroxymethyl)cyclobutyl]guanine], which “reductions in HIV viral load” value [10] is on record?
A: Its value is no more than 1.5 log.
